Experimental data from patent US20100130598A1, “METHODS FOR INDUCING PROGRAMMED CELL DEATH” (Novogen Research Pty Ltd., priority 2008, published 2010).

How the values were obtained:
[1] = tested on: MIAPaCa-2; experiment: MIAPaCa-2 pancreatic cancer xenograft; type: in vivo, Balb/c nude mice; conditions: MIAPaCa-2 model; Compound 10 100 mg/kg oral qd×12, gemcitabine 20 mg/kg q3d×4, alone or combined
Description: For xenograft studies, five week old male Balb/c nude mice were maintained on an isoflavone-free diet to remove background isoflavone levels contributed by standard feed. On the day of inoculation a suspension of MIAPaCa2 or HPAC cells was prepared in DMEM (-FBS), chilled on ice and then an equal volume of matrigel (BD) was added. Mice were inoculated subcutaneously with 3×10^6 MIAPaCa2 or HPAC cells bilaterally (midway between the axillary and inguinal region) along the dorsal surface, ensuring that cells to be injected were growing at mid-end log phase. Tumor growth was monitored over 10-15 days. Compound 10 was given orally by gavage in 1% carboxy methyl cellulose (CMC) as a vehicle. Gemcitabine was injected intraperiponeally in PBS. In combination groups animals were first dosed with Compound 10 and then dosed with gemcitabine using the respective administration schedule, dosage and route of delivery stated.

[2] = tested on: EOC tumors; experiment: Mouse EOC xenograft study; type: in vivo; conditions: 3 weeks; for T/C values (maximal tumor inhibition, treated/control): intra-peritoneal, Compound 1 100 mg/kg every day, Carboplatin 40 mg/kg q×7d, Paclitaxel 10 mg/kg q×3d
Description: Mouse xenograft studies. The in vivo study as approved by the Yale University Institutional Animal Care & Use Committee. Cells (1×10^6 cells) were resuspended in 200 μ1 total volume of 50% RPMI and 50% BD Matrigel Matrix (BD Biosciences, Bedford, Mass.) and injected subcutaneously into the right flank of NCR nude mice. Intra-peritoneal therapy commenced eight days post-inoculation as follows: Paclitaxel 10 mg/kg q×3d, Carboplatin 40 mg/kg q×7d, and Compound 1 in 20% HPBCD, 100 mg/kg every day. Control groups received 20% HPBCD in PBS. Mice were treated and observed for 3 weeks. Tumor size was determined by caliper measurements and anti-tumor activity was analyzed with respect to maximal tumor inhibition (treated/control, T/C) as described previously (Kamsteeg et al, 2003).

[3] = tested on: caspases-3/7, -8, and -9; experiment: Caspase-3/7, -8, and -9 activity assay (Caspase-Glo) on cell lysates; type: cell-based, human; conditions: EOC cells, 24 h; increasing concentrations of Compound 1 or 2 μM Paclitaxel
Text: Protein preparation and cellular fractionation. After drug treatment, protein was extracted and measured as previously described (Alvero et al, 2006). For separation of the cytoplasmic and mitochondrial fractions, cell pellets were processed using the ApoAlert™ Cell Fractionation Kit (BD Biosciences, San Jose, Calif.) according to the manufacturer's instructions. For separation of the cytoplasmic and nuclear fractions, pellets were processed using NE-PER Nuclear and Cytoplasmic Extraction (Pierce Biotechnology, Inc., Rockford, Ill.). Caspase-3/7, -8, and -9 activity assay. Ten μg of protein in a 50 μl total volume was mixed with 50 μl of equilibrated Caspase-Glo^10 3/7, 8, or 9 reagents (Promega). After incubating at room temperature for 1 h, luminescence was measured using TD 20/20 Luminometer (Turner Designs, Sunnyvale, Calif.). Blank values were subtracted and fold-increase in activity was determined in relation to the control non-treatment.

[4] = tested on: MIAPaCa-2 cells; experiment: Apoptosis/necrosis by FACS (Annexin-V-FITC/PI), MIAPaCa-2; type: cell-based, human; conditions: MIAPaCa-2, 10 μM zVAD-fmk 1 h pre-treatment; 10 μM Compound 10 or 50 ng/mL TRAIL
Description: Cells. Human pancreatic cell lines HPAC, MIAPaCa-2 and PANC-1 were obtained from the ATCC. (Manassas, Va.). The cells were maintained in DMEM media with Gln and high glucose (Mediatech, Manassas, Va.) with 10% fetal bovine serum (FBS, HyClone, Logan, Utah) and pencillin/streptomycin.
FACS Analysis. Apoptosis was measured by FACS analysis using Annexin-V-FITC and propidium iodide (PI) (Biovision, Mountain View, Calif.) as probes (Ahn et al., 2003). Mitochondrial membrane potential was measured by FACS analysis using JC-1 (Biovision) as a probe (Ahn et al., 2003). Cell cycle was analyzed on ethanol-fixed, RNaseA-treated cells staining with PI. In each spectrum, 10,000 gated events were recorded and analyzed with a FACSCalibur (BD Biosciences. San Jose, Calif.). All experiments were done in triplicate, error bars represent one standard deviation. Caspase inhibitor I (zVAD-fmk) was obtained from Calbiochem.

## Nc1ccn([C@@H]2O[C@H](CO)[C@@H](O)C2(F)F)c(=O)n1 [gemcitabine, reference compound]
[1]
  % T/C (mean terminal tumor burden): 79%

## N.N.O=C([O-])C1(C(=O)[O-])CCC1.[Pt+2] [carboplatin, reference compound]
[2]
  T/C values (maximal tumor inhibition, treated/control): 58%
[2]; xenograft mice
  toxic side effects: severe weight loss and cachexia

## CC(=O)O[C@H]1C(=O)[C@@]2(C)[C@H]([C@H](OC(=O)c3ccccc3)[C@]3(O)C[C@H](OC(=O)[C@H](O)[C@@H](NC(=O)c4ccccc4)c4ccccc4)C(C)=C1C3(C)C)[C@]1(OC(C)=O)CO[C@@H]1C[C@@H]2O [Paclitaxel, reference compound]
[3]
  caspase-3/7, -8, and -9 activities: increase
[2]
  T/C values (maximal tumor inhibition, treated/control): 58%

B1: TRAIL: TRAIL (Alexis), 50 ng/mL, positive caspase-dependent control (protein, UniProt P50591 1-281, looked up)
Tumor necrosis factor ligand …: MAMMEVQGGPSLGQTCVLIVIFTVLLQSLCVAVTYVYFTNELKQMQDKYSKSGIACFLKEDDSYWDPNDEESMNSPCWQVKWQLRQLVRKMILRTSEETISTVQEKQQNISPLVRERGPQRVAAHITGTRGRSNTLSSPNSKNEKALGRKINSWESSRSGHSFLSNLHLRNGELVIHEKGFYYIYSQTYFRFQEEIKENTKNDKQMVQYIYKYTSYPDPILLMKSARNSCWSKDAEYGLYSIYQGGIFELKENDRIFVSVTNEHLIDMDHEASFFGAFLVG
[4]
  effect of zVAD-fmk pre-treatment on induced apoptosis: inhibition
